{
  "source": "BindingDB's records for PubMed 39655996",
  "about": "(AstraZeneca)",
  "target": "Poly [ADP-ribose] polymerase 2 (Homo sapiens, UniProt Q9UGN5)",
  "sequence (Q9UGN5 whole entry)": "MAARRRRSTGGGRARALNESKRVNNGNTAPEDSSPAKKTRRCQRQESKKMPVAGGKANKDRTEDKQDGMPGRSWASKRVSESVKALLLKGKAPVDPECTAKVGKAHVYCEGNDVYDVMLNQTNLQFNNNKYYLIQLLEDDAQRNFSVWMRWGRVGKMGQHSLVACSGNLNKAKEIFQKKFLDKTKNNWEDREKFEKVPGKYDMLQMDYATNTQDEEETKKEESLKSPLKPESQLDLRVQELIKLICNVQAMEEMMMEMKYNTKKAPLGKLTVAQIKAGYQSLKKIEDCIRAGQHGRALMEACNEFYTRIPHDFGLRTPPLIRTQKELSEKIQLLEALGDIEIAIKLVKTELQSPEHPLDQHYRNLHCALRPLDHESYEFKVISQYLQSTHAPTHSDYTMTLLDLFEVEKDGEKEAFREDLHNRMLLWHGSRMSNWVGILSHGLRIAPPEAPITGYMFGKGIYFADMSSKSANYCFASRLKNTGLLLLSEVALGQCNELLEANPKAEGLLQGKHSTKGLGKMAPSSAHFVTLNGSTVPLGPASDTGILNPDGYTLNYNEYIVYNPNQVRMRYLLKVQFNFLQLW",
  "assay": "Inhibition of N-terminal 6His-tagged full-length recombinant human PARP2 by fluorescence anisotropy assay",
  "data": [
    {"molecule": "CNC(=O)c1ccc(N2CCN(Cc3ccc4nc(C)c(=O)[nH]c4c3F)CC2)c(C)n1", "note": "[5-[4-[(5-fluoro-2-methyl-3-oxo-4H-quinoxalin-6-yl)methyl]piperazin-1-yl]-N,6-dimethyl-pyridine-2-carboxamide]", "values": [
      {"measurement": "IC50", "result": "> 100", "unit": "µM"}
    ]}
  ]
}
